Tests used:
c-KIT V654A kinase = target: T1, c-KIT V654A kinase (Homo sapiens, UniProt P10721, V654A); experiment: c-KIT V654A Kinase Assay; assay type: biochemical; conditions: enzymatic assay, ATP 200 µM
T1 construct: residues T544-V976 with N-terminal GST fusion; purchased deCODE Biostructures
Method: (§1) In this assay, the oxidation of NADH (measured by decrease in absorbance at 340 nm) was continuously monitored spectrophotometrically. […] The inhibition reaction was started by mixing serial diluted test compound with the above reaction mixture. The absorption at 340 nm was monitored continuously for 6 hours at 30 °C on Synergy 2 plate reader (BioTech).
(§2) The protein construct was prepared by deCODE Biostructures using procedures known in the art. The construct contains residues T544-V976 of cKit, an N-terminal tag, a GST-fusion sequence and a TEV cleavage site. This construct is identical to Seq ID no.

c-KIT D816H kinase = target: T2, c-KIT D816H kinase (Homo sapiens, UniProt P10721, D816H); experiment: c-KIT D816H Kinase Assay; assay type: biochemical; conditions: enzymatic assay, ATP 200 µM
T2 construct: The construct contains residues T544-V976 of cKit; GST (N); TEV cleavage site (internal); purchased deCODE Biostructures
T2 sequence (P10721 544-976 D816H): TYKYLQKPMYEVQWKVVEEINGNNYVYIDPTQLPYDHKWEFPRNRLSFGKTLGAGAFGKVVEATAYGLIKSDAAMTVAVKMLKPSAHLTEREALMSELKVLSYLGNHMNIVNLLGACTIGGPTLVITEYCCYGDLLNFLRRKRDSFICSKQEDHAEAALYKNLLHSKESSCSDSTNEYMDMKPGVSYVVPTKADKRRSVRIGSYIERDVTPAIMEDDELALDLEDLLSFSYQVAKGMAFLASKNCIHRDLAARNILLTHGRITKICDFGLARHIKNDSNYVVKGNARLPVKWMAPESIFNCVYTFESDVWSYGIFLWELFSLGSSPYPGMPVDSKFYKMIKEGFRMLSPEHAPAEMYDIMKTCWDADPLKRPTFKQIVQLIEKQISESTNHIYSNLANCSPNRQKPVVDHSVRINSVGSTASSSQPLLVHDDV
Method: as §1, with “(BioTech). […] The protein construct was prepared by deCODE Biostructures using procedures known in the art. The construct contains […] of cKit, an N-terminal tag, a GST-fusion sequence and a TEV cleavage site. This construct is identical to Seq ID no.” for “(BioTech).”

c-KIT D816V kinase = target: T3, c-KIT D816V kinase (Homo sapiens, UniProt P10721, D816V); experiment: c-KIT D816V kinase Assay; assay type: biochemical; conditions: enzymatic assay, ATP 200 uM
T3 construct: residues T544-V976 with N-terminal GST fusion; purchased deCODE Biostructures
T3 sequence (P10721 544-976 D816V): as the sequence (P10721 544-976 D816H) above, with H273V counted along it
Method: as §1, with “5” for “6”
as §2

c-KIT T670I kinase = target: T4, c-KIT T670I kinase (Homo sapiens, UniProt P10721, T670I); experiment: c-KIT T670I kinase assay; assay type: biochemical; conditions: enzymatic assay
T4 construct: The construct contains residues T544-V976 of cKit; GST (N); TEV cleavage site (internal); purchased deCODE Biostructures
T4 sequence (P10721 544-976 T670I): as the sequence (P10721 544-976 D816H) above, with T127I, H273D counted along it
Method: In this assay, the oxidation of NADH (measured by decrease in absorbance at 340 nm) was continuously monitored spectrophotometrically. […] The inhibition reaction was started by mixing serial diluted test compound with the above reaction mixture. The absorption at 340 nm was monitored continuously for 5 hours at 30 °C on Synergy 2 plate reader (BioTech). […] The protein construct was prepared by deCODE Biostructures using procedures known in the art. The construct contains […] of cKit, an N-terminal tag, a GST-fusion sequence and a TEV cleavage site. This construct is identical to Seq ID no. 1 except for the T670I mutation. [formula] [formula]

c-KIT kinase = c-KIT kinase (Homo sapiens, UniProt P10721); experiment: c-KIT kinase Assay; assay type: biochemical; design: cKIT residues T544-V976; GST (N); TEV cleavage site (internal); purchased deCODE Biostructures; conditions: enzymatic assay, ATP 200 µM; read-out: KIT (wt) IC50
c-KIT kinase, sequence (P10721 544-976): as the sequence (P10721 544-976 D816H) above, with H273D counted along it
Method: In this assay, the oxidation of NADH (measured by decrease in absorbance at 340 nm) was continuously monitored spectrophotometrically. […] The absorption at 340 nm was monitored continuously for 2 hours at 30 °C on Synergy 2 (BioTeK). The reaction rate was calculated using the 0 to 1 h time frame. Percent inhibition was obtained by comparison of reaction rate with that of a control (i.e. with no test compound). IC50 values were calculated from a series of percent inhibition values determined at a range of inhibitor concentrations using software routines as implemented in the GraphPad Prism software package. The protein construct was prepared by deCODE Biostructures using procedures known in the art. The construct contains […] of cKit, an N-terminal tag, a GST-fusion sequence and a TEV cleavage site. [formula]

GIST T1 cells = experiment: GIST T1 Cell Proliferation Assay; assay type: cell-based; conditions: Homo sapiens, GISTT1, 72 h, 68 hours + 4 hours resazurin
Method: (§3) GIST48, GIST430, and GIST882 cells were obtained from J. Fletcher (Brigham and Women's Hospital, Boston, MA). GIST T1 cells were obtained from B. Rubin (Cleveland Clinic, Cleveland, OH) and Professor Takahiro Taguchi (Kochi Medical School, Nankoku, Kochi, Japan). Briefly, GIST48 and GIST 882 cells were grown in RPMI 1640 medium supplemented with 15% characterized fetal bovine serum (Invitrogen, Carlsbad, CA), 1 unit/mL penicillin G, 1 µg/ml streptomycin, and 0.29 mg/mL L-glutamine at 37 °C, 5% CO2, and 95% humidity. GIST430 cells were grown in Ham's F10 medium supplemented with 15% characterized fetal bovine serum (Invitrogen, Carlsbad, CA), 30 mg/L bovine pituitary extract (BD Biosciences, San Jose, CA), 0.5% Mito+ serum extender (BD Biosciences, San Jose, CA), 1 unit/mL penicillin G, 1 µg/ml streptomycin, and 0.29 mg/mL L-glutamine at 37 °C, 5%CO2, 95% humidity. GIST T1 cells were grown in DMEM medium supplemented with 10% characterized fetal bovine serum (Invitrogen, Carlsbad, CA), 1 unit/mL penicillin G, 1 µg/ml streptomycin, and 0.29 mg/mL L-glutamine at 37 °C, 5% CO2, and 95% humidity.
A serial dilution of test compound was dispensed into a 384-well black clear bottom plate (Corning, Corning, NY). One thousand two-hundred fifty cells were added per well in 50 µL complete growth medium. Plates were incubated for 68 hours at 37 °C, 5% CO2, 95% humidity. At the end of the incubation period 10 µL of a 440 µM solution of resazurin (Sigma, St. Louis, MO) in PBS was added to each well and incubated for an additional 4 hours at 37 °C, 5% CO2, 95% humidity. Plates were read on a Synergy2 reader (Biotek, Winooski, VT) using an excitation of 540 nm and an emission of 600 nm.

Phospho-KIT (Tyr719) = experiment: GIST48 KIT Western Blot; assay type: cell-based; conditions: GIST48 cells, 4 hours, serum-free medium; read-out: pKIT suppression by western blot analysi GIST48
Method: as §3, with “Briefly, GIST48 and GIST 882 cells were grown in RPMI 1640 medium supplemented with 15% characterized fetal bovine serum (Invitrogen, Carlsbad, CA), 1 unit/mL penicillin G, 1 µg/ml streptomycin, and 0.29 mg/mL L-glutamine at 37 °C, 5% CO2, and 95% humidity.” left out
Two hundred fifty thousand cells were added per well in a 24-well tissue-culture treated plate. […] Medium was aspirated, cells were washed with PBS, and serum-free RPMI1640 medium was added. […] Cells were washed with PBS, then lysed. Cell lysates were separated by SDS-PAGE and transferred to PVDF. Phospho-KIT (Tyr719) was detected using an antibody from Cell Signaling Technology (Beverly, MA), ECL Plus detection reagent (GE Healthcare, Piscataway, NJ) and a Molecular Devices Storm 840 phosphorimager in fluorescence mode. Blots were stripped and probed for total KIT using an antibody from Santa Cruz Biotech (Santa Cruz, CA). IC50 values were calculated using Prism software (Graphpad, San Diego, CA).

T1 sequence (P10721 544-976 V654A): as the sequence (P10721 544-976 D816H) above, with V111A, H273D counted along it

| Compound | IC50 (c-KIT V654A kinase) | IC50 (c-KIT D816H kinase) | IC50 (c-KIT D816V kinase) | IC50 (c-KIT T670I kinase) | IC50 (c-KIT kinase) | IC50 (Phospho-KIT (Tyr719)) | IC50 (GIST T1 cells) |
| --- | --- | --- | --- | --- | --- | --- | --- |
| CCn1c(=O)c(-c2cc(NC(=O)Nc3ccccc3F)c(F)cc2Cl)cc2cnc(NCCOC)cc21 [Example 35, 1-(4-chloro-5-(1-ethyl-7-(2-methoxyethylamino)-2-oxo-1,2-dihydro-1,6-naphthyridin-3-yl)-2-fluorophenyl)-3-(2-fluorophenyl)urea] | 10 to 100 nM | 10 to 100 nM | 10 to 100 nM | 100 to 1000 nM | < 10 nM |  |  |
| CCn1c(=O)c(-c2cc(NC(=O)Nc3ccc(F)c(CN4CCCC4)c3)c(F)cc2Cl)cc2cnc(NC)cc21 [Example 97, 1-(4-chloro-5-(1-ethyl-7-(methylamino)-2-oxo-1,2-dihydro-1,6-naphthyridin-3-yl)-2-fluorophenyl)-3-(4-fluoro-3-(pyrrolidin-1-ylmethyl)phenyl)urea] |  |  |  |  |  |  | < 10 nM |
| CC(=O)Nc1cc2c(cn1)cc(-c1cc(NC(=O)Nc3cccc(F)c3)c(F)cc1Cl)c(=O)n2C(C)C [Example 99, N-(3-(2-chloro-4-fluoro-5-(3-(3-fluorophenyl)ureido)phenyl)-1-isopropyl-2-oxo-1,2-dihydro-1,6-naphthyridin-7-yl)acetamide] |  |  |  |  |  |  | < 10 nM |
| CCn1c(=O)c(-c2cc(NC(=O)Nc3ccc(F)c(CN4CCOCC4)c3)c(F)cc2Cl)cc2cnc(NC=O)cc21 [Example 107, N-(3-(2-chloro-4-fluoro-5-(3-(4-fluoro-3-(morpholinomethyl)phenyl)ureido)phenyl)-1-ethyl-2-oxo-1,2-dihydro-1,6-naphthyridin-7-yl)formamide] |  |  |  |  |  |  | 10 to 100 nM |
| Cc1cc(F)c(NC(=O)Nc2ccccc2)cc1-c1cc2cnc(NC(=O)N3CCC3)cc2n(C(C)C)c1=O [Example 109, N-(3-(4-fluoro-2-methyl-5-(3-phenylureido)phenyl)-1-isopropyl-2-oxo-1,2-dihydro-1,6-naphthyridin-7-yl)azetidine-1-carboxamide] |  |  |  |  |  | 10 to 100 nM |  |

The next lines start with results.

| IC50 (c-KIT V654A kinase) | IC50 (c-KIT D816H kinase) | IC50 (c-KIT D816V kinase) | IC50 (c-KIT T670I kinase) | IC50 (c-KIT kinase) | IC50 (Phospho-KIT (Tyr719)) | Compound | IC50 (GIST T1 cells) |
| --- | --- | --- | --- | --- | --- | --- | --- |
| 10 to 100 nM | 10 to 100 nM | 10 to 100 nM | 100 to 1000 nM | < 10 nM |  | CCn1c(=O)c(-c2cc(NC(=O)Nc3ccccc3)c(F)cc2C)cc2cnc(NCCOC)cc21 [Example 37, 1-(5-(1-ethyl-7-(2-methoxyethylamino)-2-oxo-1,2-dihydro-1,6-naphthyridin-3-yl)-2-fluoro-4-methylphenyl)-3-phenylurea] |  |
| 100 to 1000 nM | 10 to 100 nM | 100 to 1000 nM | 10 to 100 nM | 10 to 100 nM |  | CCn1c(=O)c(-c2cc(NC(=O)Nc3ccc(F)c(CN4CCN(C)CC4)c3)c(F)cc2C)cc2cnc(NC)cc21 [Example 89, 1-(5-(1-ethyl-7-(methylamino)-2-oxo-1,2-dihydro-1,6-naphthyridin-3-yl)-2-fluoro-4-methylphenyl)-3-(4-fluoro-3-((4-methylpiperazin-1-yl)methyl)phenyl)urea] |  |
| 10 to 100 nM | 10 to 100 nM | 10 to 100 nM | 10 to 100 nM | < 10 nM |  | CCn1c(=O)c(-c2cc(NC(=O)Nc3cccc(C#N)c3)c(F)cc2Cl)cc2cnc(NC)cc21 [Example 91, 1-(4-chloro-5-(1-ethyl-7-(methylamino)-2-oxo-1,2-dihydro-1,6-naphthyridin-3-yl)-2-fluorophenyl)-3-(3-cyanophenyl)urea] |  |
|  |  | 100 to 1000 nM | 10 to 100 nM | < 10 nM |  | CCn1c(=O)c(-c2cc(NC(=O)Nc3ccc(F)c(CN4CCOCC4)c3)c(F)cc2Cl)cc2cnc(NC)cc21 [Example 95, 1-(4-chloro-5-(1-ethyl-7-(methylamino)-2-oxo-1,2-dihydro-1,6-naphthyridin-3-yl)-2-fluorophenyl)-3-(4-fluoro-3-(morpholinomethyl)phenyl)urea] | < 10 nM |
| 10 to 100 nM | 10 to 100 nM | 10 to 100 nM | 10 to 100 nM | 10 to 100 nM | < 10 nM | CCn1c(=O)c(-c2cc(NC(=O)Nc3ccccc3)c(F)cc2C)cc2cnc(NC(=O)N3CCC3)cc21 [Example 110, N-(1-ethyl-3-(4-fluoro-2-methyl-5-(3-phenylureido)phenyl)-2-oxo-1,2-dihydro-1,6-naphthyridin-7-yl)azetidine-1-carboxamide] |  |
| 100 to 1000 nM | < 10 nM | 10 to 100 nM | 10 to 100 nM | 10 to 100 nM |  | CCn1c(=O)c(-c2cc(NC(=O)Nc3ccccc3)c(F)cc2C)cc2cnc(NC(=O)N3CC(N(C)C)C3)cc21 [Example 113, 3-(dimethylamino)-N-(1-ethyl-3-(4-fluoro-2-methyl-5-(3-phenylureido)phenyl)-2-oxo-1,2-dihydro-1,6-naphthyridin-7-yl)azetidine-1-carboxamide] |  |
